11 molecules from patent US11608332B2, “FGFR4 inhibitor and preparation method and use thereof” (Jiangsu Hansoh Pharmaceutical Group Co., Ltd., priority 2016, dated 2023) can be followed below.

The target of one data set is FGFR4 kinase (Homo sapiens (Human), UniProt P22455). Description: Enzymologic experiment of FGFR4 (TR-FRET). It counts as biochemical. The following applies: TR-FRET kinase activity. On the procedure:
1. Enzymologic Experiment of FGFR4
In this experiment, the inhibitory effect of the compounds on FGFR4 kinase activity was tested by a fluorescence resonance energy transfer (TR-FRET) method, and the half maximal inhibitory concentration (IC50) of the compounds on the FGFR4 kinase activity was determined.
2) 1˜5 μL of diluted solution in gradient of the compound were added.
4) The mixture was incubated for 0.5-3 hours at room temperature.
5) 10 μL of EDTA and a test solution comprising labeled antibody were added, and the plate was incubated for 1 hour at room temperature.
6) The fluorescence signal values of each plate were determined by a microplate reader at 665 nm.
7) The inhibition rates were calculated according to the fluorescence signal values.

The nature of data set [1]: Pharmacokinetic (PK) analysis in rats. Type of data set: in vivo, Sprague Dawley (SD) rats. As to conditions: SD rats, single intragastric administration, 5 mg/kg, plasma; for AUC(0-t) / AUC(0-inf) / half-life / MRT / Cmax: Sprague-Dawley, rat, po; for AUC(0-t): read-out: Area Under Curve AUC0-t; for AUC(0-inf): read-out: Area Under Curve AUC0-∞; for half-life: read-out: Half-Time t1/2 (converted); for MRT: read-out: Mean Residence Time MRT; for Cmax: read-out: Plasma Concentration Cmax.

Another data set concerns Hep 3B cells. Description: Inhibition of Hep 3B cell proliferation (CellTiter-Glo). The following applies: Homo sapiens, Hep3B, 72 hours. It counts as cell-based. Summed up:
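Hep 3B cells seeded at 1-5×10^4 cells/ml and incubated 16-24 h, then exposed to serially diluted compound for 72 h at 37° C, 5% CO2. Viability read by CellTiter-Glo chemiluminescence; IC50 curve-fitted from inhibition rates.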
A general note: ATP-based viability assays read luminescence as a measure of living cells.

Another data set concerns HuH-7 cells. Description: Inhibition of HuH-7 cell proliferation (CellTiter-Glo). It counts as cell-based. As to conditions: Homo sapiens, 72 hours. Summed up: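 HuH-7 cells, pre-incubated 16–24 h (37 °C, 5% CO2), then exposed to serially diluted compound for 72 h. Viability by CellTiter-Glo luminescence; inhibition rates from signal, IC50 by curve fitting.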
The subject of the next data set is SK-HEP-1 cells. Description: Inhibition of SK-HEP-1 cell proliferation (CellTiter-Glo). Type of data set: cell-based. As to conditions: Homo sapiens, SK-HEP1, 72 hours. The method, boiled down: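 SK-HEP-1 cells were seeded, grown 16–24 h, then exposed to serially diluted compound for 72 h at 37 °C, 5% CO2. Viability was read by CellTiter-Glo luminescence, and IC50 was fitted from inhibition rates.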

The next data set concerns the target FGFR1 kinase (Homo sapiens (Human), UniProt P11362). Description: Enzymologic experiment of FGFR1 (TR-FRET). Type of data set: biochemical. As to conditions: TR-FRET kinase activity. The method, boiled down: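 Inhibition of FGFR1 (0.1–5 nM) was measured by TR-FRET with 5–50 nM peptide substrate and 10–200 μM ATP over 0.5–3 h at room temperature. The reaction was stopped with EDTA plus labeled antibody for 1 h, read at 665 nm, and IC50 was fitted from inhibition rates.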
Background: In TR-FRET formats the signal depends on donor and acceptor labels being close together.

Chain of FGFR1 kinase (P11362 22-822): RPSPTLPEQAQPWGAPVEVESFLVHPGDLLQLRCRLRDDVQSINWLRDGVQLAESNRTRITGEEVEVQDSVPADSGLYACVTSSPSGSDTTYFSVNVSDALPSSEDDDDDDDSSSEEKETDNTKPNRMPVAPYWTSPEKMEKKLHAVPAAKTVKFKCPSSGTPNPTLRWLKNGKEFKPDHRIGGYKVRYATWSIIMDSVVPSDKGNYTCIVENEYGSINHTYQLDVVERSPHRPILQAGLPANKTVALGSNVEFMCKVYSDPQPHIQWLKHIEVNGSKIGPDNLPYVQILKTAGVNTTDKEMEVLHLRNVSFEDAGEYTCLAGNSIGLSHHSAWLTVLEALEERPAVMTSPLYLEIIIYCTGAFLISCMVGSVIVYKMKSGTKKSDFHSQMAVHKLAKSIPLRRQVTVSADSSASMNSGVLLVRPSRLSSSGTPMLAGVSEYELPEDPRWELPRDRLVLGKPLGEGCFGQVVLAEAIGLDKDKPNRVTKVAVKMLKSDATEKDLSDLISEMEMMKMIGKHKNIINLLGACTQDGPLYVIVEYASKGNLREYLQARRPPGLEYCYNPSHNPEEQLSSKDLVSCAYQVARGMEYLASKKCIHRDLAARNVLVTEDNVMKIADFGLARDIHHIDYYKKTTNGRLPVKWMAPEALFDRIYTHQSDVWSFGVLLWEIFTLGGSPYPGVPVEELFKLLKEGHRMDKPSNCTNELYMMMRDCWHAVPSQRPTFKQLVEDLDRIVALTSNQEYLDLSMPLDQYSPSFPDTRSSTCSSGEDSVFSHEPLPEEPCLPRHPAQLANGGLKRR
Chain of FGFR4 kinase (P22455 22-802): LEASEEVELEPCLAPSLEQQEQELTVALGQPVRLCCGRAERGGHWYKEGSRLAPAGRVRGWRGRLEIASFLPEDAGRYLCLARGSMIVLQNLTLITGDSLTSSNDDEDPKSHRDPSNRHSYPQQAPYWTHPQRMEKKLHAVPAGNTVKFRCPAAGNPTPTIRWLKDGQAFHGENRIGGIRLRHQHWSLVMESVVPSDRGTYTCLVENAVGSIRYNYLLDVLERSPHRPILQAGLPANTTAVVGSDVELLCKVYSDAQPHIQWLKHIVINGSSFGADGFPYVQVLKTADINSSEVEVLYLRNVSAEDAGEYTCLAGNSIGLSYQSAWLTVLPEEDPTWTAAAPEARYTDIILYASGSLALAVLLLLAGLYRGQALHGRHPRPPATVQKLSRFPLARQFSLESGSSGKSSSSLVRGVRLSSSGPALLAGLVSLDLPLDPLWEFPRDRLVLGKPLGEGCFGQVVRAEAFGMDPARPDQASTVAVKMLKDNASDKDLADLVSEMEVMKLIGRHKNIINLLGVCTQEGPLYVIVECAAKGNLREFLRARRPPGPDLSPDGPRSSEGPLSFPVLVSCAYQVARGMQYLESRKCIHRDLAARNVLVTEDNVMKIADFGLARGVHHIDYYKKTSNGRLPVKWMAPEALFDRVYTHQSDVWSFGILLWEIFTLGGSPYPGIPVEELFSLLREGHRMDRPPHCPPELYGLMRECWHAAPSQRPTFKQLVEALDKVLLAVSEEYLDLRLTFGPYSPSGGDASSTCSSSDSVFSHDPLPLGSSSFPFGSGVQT

As for `COC[C@@H](C)Oc1cc(NC(=O)N2CCCc3cc(CN(C)C(=O)[C@H]4CCCO4)c(C=O)nc32)ncc1C#N` [Example 15, N-(5-Cyano-4-(((R)-1-methoxypropan-2-yl)oxy)pyridin-2-yl)-7-formyl-6-(((R)—N-methyltetrahydrofuran-2-carboxamido)methyl)-3,4-dihydro-1,8-naphthyridin-1(2H)-carboxamide], on FGFR4 kinase, the IC50 was 2.53 nM. Also, in data set [1], the Peak Time tmax stood at 2 h, the AUC(0-t) is 7160 ng·h/mL, the AUC(0-inf) amounted to 7970 ng·h/mL and the half-life is 1.5 h. For the same molecule, in data set [1], the MRT came out at 3 h and the Cmax turned out to be 2690 ng/mL. This molecule gave an IC50 with Hep 3B cells of 3.5 nM. In addition, the IC50 in the data set with HuH-7 cells turned out to be 8 nM. Also, the IC50 in the data set on SK-HEP-1 cells is over 10000 nM. Also, the 50% inhibitory concentration (IC50) on FGFR1 kinase is over 10000 nM.

With `COCC(=O)N(C)Cc1cc2c(nc1C=O)N(C(=O)Nc1cc(N[C@@H]3COC[C@H]3OC)c(C#N)cn1)CCC2` (relative stereo) [Example 108, N-(5-Cyano-4-(((trans)-4-methoxytetrahydrofuran-3-yl)amino)pyridin-2-yl)-7-formyl-6-((2-methoxy-N-methylacetamido)methyl)-3,4-dihydro-1,8-naphthyridin-1 (2H)-carboxamide], the IC50 against FGFR4 kinase was 1.07 nM; with Hep 3B cells, 2.5 nM; in the data set with HuH-7 cells, 10 nM; in the data set on SK-HEP-1 cells, over 10000 nM; at FGFR1 kinase, over 10000 nM.

As to `CCN1CCC[C@@H]1C(=O)N(C)Cc1cc2c(nc1C=O)N(C(=O)Nc1cc(NCCOC)c(C#N)cn1)CCC2` [Example 97, (R)—N-(5-Cyano-4-((2-methoxyethyl)amino)pyridin-2-yl)-6-((1-ethyl-N-methylpyrrolidin-2-carboxamido)methyl)-7-formyl-3,4-dihydro-1,8-naphthyridin-1(2H)-carboxamide], the IC50 against FGFR4 kinase was 1.47 nM; in the data set with Hep 3B cells, 9.8 nM; in the data set on HuH-7 cells it was 43.7 nM; with SK-HEP-1 cells, over 10000 nM; at FGFR1 kinase it was over 10000 nM.

Turning to `CO[C@@H]1CCN(c2cc(NC(=O)N3CCCc4cc(CN(C)C(=O)[C@H]5CCCO5)c(C=O)nc43)ncc2C#N)C1` [Example 18, N-(5-Cyano-4-((R)-3-methoxypyrrolidin-1-yl)pyridin-2-yl)-7-formyl-6-(((R)—N-methyltetrahydrofuran-2-carboxamido)methyl)-3,4-dihydro-1,8-naphthyridin-1(2H)-carboxamide], the IC50 was 4.2 nM at FGFR4 kinase and over 10000 nM against FGFR1 kinase.

As for `COCCNc1cc(NC(=O)N2CCCc3cc(CN(C)C(=O)[C@H]4CCCN4C(C)=O)c(C=O)nc32)ncc1C#N` [Example 10, (R)-6-((1-Acetyl-N-methylpyrrolidin-2-carboxamido)methyl)-N-(5-cyano-4-((2-methoxyethyl)amino)pyridin-2-yl)-7-formyl-3,4-dihydro-1,8-naphthyridin-1(2H)-carboxamide], inhibition against FGFR4 kinase was half-maximal at 1.88 nM (IC50). For the same molecule, in data set [1], the Peak Time tmax is 2 h, the AUC(0-t) came out at 5260 ng·h/mL, the AUC(0-inf) was determined as 5340 ng·h/mL and the half-life was 1 h. Further, in data set [1], the MRT worked out at 2.8 h and the Cmax was 1960 ng/mL. The same molecule returned an IC50 against FGFR1 kinase of over 10000 nM.

In turn, `CO[C@H]1CCN(Cc2cc3c(nc2C=O)N(C(=O)Nc2cc(NC4COC4)c(C#N)cn2)CCC3)C1=O` [Example 83, (S)—N-(5-Cyano-4-(oxetan-3-ylamino)pyridin-2-yl)-7-formyl-6-((3-methoxy-2-carbonylpyrrolidin-1-yl)methyl)-3,4-dihydro-1,8-naphthyridin-1(2H)-carboxamide] came in with an IC50 on FGFR4 kinase of 1.32 nM. Besides, in data set [1], the Peak Time tmax is 2 h, the AUC(0-t) was determined as 7520 ng·h/mL, the AUC(0-inf) stood at 7590 ng·h/mL and the half-life is 0.9 h. In addition, in data set [1], the mean residence time (MRT) was 3 h and the Cmax was 2330 ng/mL. In the data set with Hep 3B cells, this molecule displayed an IC50 of 4.7 nM. This molecule registered an IC50 in the data set on HuH-7 cells of 5.5 nM. Moreover, in the data set with SK-HEP-1 cells, the 50% inhibitory concentration (IC50) was over 10000 nM. The same molecule registered a concentration for half-maximal inhibition (IC50) on FGFR1 kinase of over 10000 nM.

At FGFR4 kinase, `COC[C@@H](C)Oc1cc(NC(=O)N2CCCc3cc(CN4CC[C@H](OC)C4=O)c(C=O)nc32)ncc1C#N` [Example 50, N-(5-Cyano-4-(((R)-1-methoxypropan-2-yl)oxy)pyridin-2-yl)-7-formyl-6-(((S)-3-methoxy-2-carbonylpyrrolidin-1-yl)methyl)-3,4-dihydro-1,8-naphthyridin-1(2H)-carboxamide] registered an IC50 of 1.2 nM. Also, in data set [1], the Peak Time tmax worked out at 2 h, the AUC(0-t) amounted to 9220 ng·h/mL, the AUC(0-inf) was found to be 9240 ng·h/mL and the half-life is 0.8 h. In data set [1], the MRT was 2.5 h and the Cmax turned out to be 2350 ng/mL. In the data set with Hep 3B cells, this molecule yielded an IC50 of 2.3 nM. Besides, the IC50 with HuH-7 cells turned out to be 9.4 nM. Also, in the data set on SK-HEP-1 cells, the IC50 is over 10000 nM. At FGFR1 kinase, the half-inhibitory concentration (IC50) is over 10000 nM.

Turning to `CN(Cc1cc2c(nc1C=O)N(C(=O)Nc1cc(N[C@H]3CCOC3)c(C#N)cn1)CCC2)C(=O)C1CCOCC1` [Example 99, (S)—N-(5-Cyano-4-((tetrahydrofuran-3-yl)amino)pyridin-2-yl)-7-formyl-6-((N-methyltetrahydro-2H-pyran-4-carboxamido)methyl)-3,4-dihydro-1,8-naphthyridin-1(2H)-carboxamide], the IC50 against FGFR4 kinase is 1.95 nM; in the data set on Hep 3B cells, 5.5 nM; with HuH-7 cells, 12 nM; in the data set on SK-HEP-1 cells, over 10000 nM; on FGFR1 kinase it was over 10000 nM.

With `COCCSc1cc(NC(=O)N2CCCc3cc(CN(C)C(=O)[C@H]4CCCO4)c(C=O)nc32)ncc1C#N` [Example 16, (R)—N-(5-Cyano-4-((2-methoxyethyl)thio)pyridin-2-yl)-7-formyl-6-((N-methyltetrahydrofuran-2-carboxamido)methyl)-3,4-dihydro-1,8-naphthyridin-1(2H)-carboxamide], the half-inhibitory concentration (IC50) at FGFR4 kinase was 1.98 nM. In data set [1], the Peak Time tmax stood at 2 h, the AUC(0-t) is 8760 ng·h/mL, the AUC(0-inf) amounted to 8370 ng·h/mL and the half-life was 1.4 h. In addition, in data set [1], the MRT was determined as 2.5 h and the Cmax is 3140 ng/mL. In the data set with Hep 3B cells, this molecule gave an IC50 of 3.9 nM. Inhibition in the data set with HuH-7 cells was half-maximal at 10.7 nM (IC50). The IC50 in the data set on SK-HEP-1 cells is over 10000 nM. The same molecule returned a half-maximal inhibitory concentration (IC50) on FGFR1 kinase of over 10000 nM.

Turning to `CN(Cc1cc2c(nc1C=O)N(C(=O)Nc1cc(N(C)C)c(C#N)cn1)CCC2)C(=O)C1CCCO1` (stereo not drawn) [Example 4, N-(5-Cyano-4-(dimethylamino)pyridin-2-yl)-7-formyl-6-((N-methyltetrahydrofuran-2-carboxamido)methyl)-3,4-dihydro-1,8-naphthyridin-1(2H)-carboxamide], the IC50 is 4.54 nM against FGFR4 kinase and over 10000 nM on FGFR1 kinase.

Consider `CN(Cc1cc2c(nc1C=O)N(C(=O)Nc1cc(N[C@H]3CCOC3)c(C#N)cn1)CCC2)C(=O)[C@H]1CCCO1` [Example 94, N-(5-Cyano-4-(((S)-tetrahydrofuran-3-yl)amino)pyridin-2-yl)-7-formyl-6-(((R)—N-methyltetrahydrofuran-2-carboxamido)methyl)-3,4-dihydro-1,8-naphthyridin-1 (2H)-carboxamide], for which, in data set [1], the Peak Time tmax amounted to 2 h, the AUC(0-t) amounted to 13000 ng·h/mL, the AUC(0-inf) was 12400 ng·h/mL and the half-life was 0.8 h. Also, in data set [1], the mean residence time MRT is 2.8 h and the Cmax was 3750 ng/mL. The same molecule returned an IC50 with Hep 3B cells of 3.9 nM. In addition, the IC50 in the data set with HuH-7 cells amounted to 13.8 nM. In the data set on SK-HEP-1 cells, the IC50 was over 10000 nM. The molecule further gave a 50% inhibitory concentration (IC50) against FGFR1 kinase of over 10000 nM.

Broadly, the IC50 is the concentration that inhibits the measured activity by half. A lower IC50 goes with greater potency in that assay. In general, MRT refers to a mean duration of stay, worked out from the concentration-time curve.
